Measured values taken from publication PMC7309601 (Frontiers in Neuroscience, 2020).
“Also recorded” adds a separate entry of the source.

What was measured:
[1] = system: ACh outflow in the hippocampus; assay: Hippocampal microdialysis and quantification of ACh; assay type: in vivo, mice
Description: Mice were anesthetized with isoflurane, placed in a stereotaxic frame and bilaterally implanted with probes in both left and right hippocampi.
Concentrations of ACh in the microdialysis samples were analyzed by the Pronexus Analytical AB company (Stockholm, Sweden) using UHPLC tandem mass spectrometry (MS/MS). Briefly, the UHPLC-MS/MS system included a PAL autosampler (CTC Analytics, Zwingen, Switzerland), an Advance UHPLC pump, and an EVOQ Elite triple quadrupole mass spectrometer (Bruker Daltonics, Fremont, CA, United States) equipped with electrospray ionization source operating in a positive mode at +4,500 V. The source parameters were as follows: probe gas flow: 50, nebulizer gas flow: 60, probe temperature: +300°C, cone gas flow: 30, cone temperature: +200°C, CID gas: Ar 1.5 mTorr. A Titan PFP column (100 × 2.1 mm, 1.9 μm, 120 Å pore size) purchased from Sigma-Aldrich (Sweden) was used for UHPLC. Deuterated ACh (acetylcholine-1,1,2,2-d4 bromide; ACh-d4), used as internal standard, was purchased from C/D/N Isotopes (QMX Laboratories, Dunmow CM6 2PY, United Kingdom). Typically, 10 μL of aCSF or hippocampal microdialysate was mixed with 20 μL of ACh-d4 internal standard (50 nM, in aCSF), and 5 μL of the mixture was injected into the column. The mobile phase A was 0.1% (vol/vol) formic acid in water; the mobile phase B was acetonitrile with 0.1% formic acid. The linear elution gradient was as follows: 0–0.5 min: 5% B; 3.5 min: 55% B; 3.6 to 4.0 min: 70% B; 4.1 min, 5% B. The flow rate was 400 μL/min, and the total run-to-run time was 4.8 min. The calibration curve was linear in the range of 0.1 to 409.6 nM ACh (R^2 = 0.999); the estimated limit of detection was 0.05 nM, and the lower limit of quantification was 0.15 nM.
. 1 mg/kg, i.p.), or vehicle (NaCl 0.9%). Values are expressed as means ± SEM, n = 4–7 per group. Two-way ANOVA followed by Fisher least significant difference: *P < 0.05, **P < 0.01 vs Vehicle; […]. Acetylcholinesterase activity is expressed as percent of that determined in the absence of drugs. […]

[2] = system: scopolamine-treated mice injected with sh-GFP, sh-Cx30 or sh-Cx43; assay: Novel object location (NOL) task in lentiviral vector-injected, scopolamine-treated mice; assay type: in vivo
astrocyte Cx expression = system: astrocyte Cx expression; parameters: method as in Biswas et al., 2018; conditions: ref Biswas et al., 2018; cited from earlier work
scopolamine-treated mice [3] = assay: Y-maze spontaneous alternation task after scopolamine challenge; conditions: for Spontaneous alternation (Y-maze): effect on scopolamine-induced deficit: scopolamine 0.5 mg/kg s.c.
Description: Mefloquine (Sigma-Aldrich, L’Isle d’Abeau Chesnes, France) and DPZ (Sigma-Aldrich) were dissolved in 2% dimethyl sulfoxide (DMSO) and administered acutely either intraperitoneally (i.p.) (5 mL/kg) or by oral gavage (p.o.) (10 mL/kg). Scopolamine (Sigma-Aldrich) was administered subcutaneously (s.c.) (5 mL/kg) in saline solution (0.9% NaCl).
Mice were placed at the end of one arm of a Y-maze and allowed to move freely through the maze during an 8-min session. Spontaneous alternation was defined as entries into all three arms on consecutive occasions. […] The number of total arm entries during the 8-min session was used to quantify locomotor activity.

scopolamine-treated mice [4] = assay: Novel object recognition (NOR) task after scopolamine challenge; assay type: in vivo; conditions: scopolamine 0.5 mg/kg s.c.
Description: (§1) Both novel object recognition (NOR) and novel object location (NOL) tests were carried out in an open-field arena during three phases ([Leger et al., 2013]; [Vogel-Ciernia and Wood, 2014]; [Lueptow, 2017]). (i) For the habituation phase on the first day, mice were allowed to freely explore the empty apparatus. (ii) On the second day, two identical objects were placed at two opposite edges of the arena. Time spent by the mouse exploring the two objects was recorded. (iii) Twenty-four hours later, one of the two familiar objects was replaced by a novel one (NOR) or displaced (NOL). Mice were allowed to explore the whole arena during 10 min for each of the three phases. The preference index was calculated as the ratio of the duration of contacts with the novel/displaced object over the total duration of contacts with the two objects. Locomotion was recorded using EthoVision software (Noldus, Paris, France).

[5] = system: Aβ25–35 peptide-injected mice; assay: Morris water maze in Aβ25–35-injected mice
Description: Control groups received the vehicles only under the very same conditions (volume, time, route of administration) as tested drugs.
Both peptides Aβ25–35 and Sc.Aβ (scramble Aβ25–35) were purchased from PolyPeptides (Strasbourg, France).
Mice were placed in a circular pool with external cues in the room. […] Training consisted of three swims with 20-min intertrial time each day for 5 days, performed between days 11 and 15 after Aβ25–35 peptide or Sc.Aβ peptide i.c.v. injection. Random starting positions were selected each day, and each animal was allowed a 90-s swim to find the platform. Probe test was performed 24 h after the last swim (day 16 after peptide injection). The platform was removed, and each animal was allowed a free 60-s swim. The time spent in each quadrant was determined. Swimming was recorded using EthoVision software (Noldus).

5-HT2C = target: 5-HT2C; parameters: method as in Thompson et al., 2007; Janowsky et al., 2014; conditions: ref Thompson et al., 2007; Janowsky et al., 2014; cited from earlier work
[6] = target: noradrenaline transporters; parameters: method as in Janowsky et al., 2014; conditions: ref Janowsky et al., 2014; cited from earlier work
mouse hippocampus AChE = target: T1, mouse hippocampus AChE (Mus musculus, UniProt P21836); assay type: biochemical
T1 construct: from tissue; host or cells: mouse hippocampus homogenate, cleared supernatant
T1 sequence (P21836 32-614): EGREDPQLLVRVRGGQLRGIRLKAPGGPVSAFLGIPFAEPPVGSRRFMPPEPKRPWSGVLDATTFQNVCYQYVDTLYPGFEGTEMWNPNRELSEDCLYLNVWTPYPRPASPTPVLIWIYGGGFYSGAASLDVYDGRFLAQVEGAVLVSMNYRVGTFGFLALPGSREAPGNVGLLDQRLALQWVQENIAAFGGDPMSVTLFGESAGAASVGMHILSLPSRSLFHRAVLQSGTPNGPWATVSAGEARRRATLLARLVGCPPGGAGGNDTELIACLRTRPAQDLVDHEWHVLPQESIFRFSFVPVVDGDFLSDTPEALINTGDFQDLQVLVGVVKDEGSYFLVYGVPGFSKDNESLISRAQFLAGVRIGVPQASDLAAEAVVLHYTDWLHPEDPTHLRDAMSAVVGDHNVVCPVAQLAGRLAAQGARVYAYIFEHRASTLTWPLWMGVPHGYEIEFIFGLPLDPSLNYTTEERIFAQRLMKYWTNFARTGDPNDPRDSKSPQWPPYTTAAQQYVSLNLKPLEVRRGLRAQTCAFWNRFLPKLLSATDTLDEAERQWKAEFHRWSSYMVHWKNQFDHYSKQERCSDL
Description: Acetylcholinesterase activity was quantified using a cholinesterase activity assay kit according to manufacturer’s recommendations (MAK119; Sigma, St. Louis, MO, United States). Briefly, mouse hippocampus was homogenized (10 μL/mg) in 0.1 M Na/K phosphate buffer (PB) (pH 7.5) at 4°C followed by centrifugation at 30,000 × g for 5 min. […] Absorbance at 415 nm was quantified using VICTOR plate reader (Perkin–Elmer Inc., Waltham, Massachusetts, United States) at 2-min intervals from time 0 (tissue sample addition) up to 10 min. Acetylcholinesterase activity was expressed as units/L. One unit of AChE is the amount of enzyme that catalyzes the production of 1.0 μmol of thiocholine per minute at room temperature at pH 7.5.
Acetylcholinesterase activity is expressed as percent of that determined in the absence of drugs.

[7] = system: Aβ25–35 peptide-injected mice; assay: Novel object recognition (NOR) task in Aβ25–35-injected mice; assay type: in vivo
Description: as §1

5-HT3 receptors = target: 5-HT3 receptors; parameters: method as in Thompson et al., 2007; Janowsky et al., 2014; conditions: ref Thompson et al., 2007; Janowsky et al., 2014; cited from earlier work
5-HT1A = target: 5-HT1A; parameters: method as in Thompson et al., 2007; Janowsky et al., 2014; conditions: ref Thompson et al., 2007; Janowsky et al., 2014; cited from earlier work
[8] = rat, in vivo; cited from earlier work
sigma-1 receptor = target: T2, sigma-1 receptor (Homo sapiens, UniProt Q99720); assay: Eurofins CEREP sigma-1 receptor test; assay type: binding; conditions: MEF at a concentration as high as 1 μM; data not shown
T2 construct: Eurofins CEREP
T2 sequence (Q99720 whole entry, species assumed): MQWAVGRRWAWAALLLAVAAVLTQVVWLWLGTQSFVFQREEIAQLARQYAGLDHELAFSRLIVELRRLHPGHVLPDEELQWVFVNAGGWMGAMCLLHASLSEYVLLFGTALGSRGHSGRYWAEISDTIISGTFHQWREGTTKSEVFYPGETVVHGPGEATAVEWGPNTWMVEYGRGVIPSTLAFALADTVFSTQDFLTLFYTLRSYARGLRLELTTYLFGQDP

in vivo = conditions: rat
Description: Drugs were administered p.o., once per day for 14 days.
Blood was collected on the 14th treatment day, just prior to drug administration (T0) and then 30 min, 1, 2, 4, 8, and 24 h later. Blood was collected by retro-orbital puncture except for the last collection, which was made by intracardiac puncture. After coagulation, blood samples were centrifuged at 3,000 × g for 15 min, and serum was collected and stored at −80°C. Rats were sacrificed by decapitation immediately after the last blood collection, and their brains including brainstem and cerebellum were removed as one piece, placed on tinfoil precooled on dry ice and stored at −80°C until drug quantifications.
One volume of brain or serum samples was added to three volumes of human serum EDTA K3, and the mixture was homogenized under magnetic stirring for 15 min for analysis using a Sciex API4000 Qtrap mass spectrometer coupled to a Shimadzu HPLC system (Shimadzu Corporation, Marne-la-Vallée, France).
(A,C) Blood samples were collected before treatment (T0) and then at 0.5, 1, 2, 4, 8, and 24 h after the last administration on day 14. (B,D) Brain samples were collected on day 15, 24 h after the last drug administration. […] No statistical analysis applicable (C,D). Bars in black indicate combination treatments.

[9] = system: Cx-mediated astroglial cellular coupling; parameters: method as in Jeanson et al., 2016; conditions: same concentration range as reached under the treatment conditions; ref Jeanson et al., 2016; cited from earlier work

## COc1cc2c(cc1OC)C(=O)C(CC1CCN(Cc3ccccc3)CC1)C2 (stereo not shown) [DPZ, Donepezil]
[1]; DPZ 0.25 mg/kg i.p. alone
  Hippocampal ACh outflow: did not significantly modify ACh outflow
[1]; DPZ 1 mg/kg i.p., 20 min after injection
  Increase of hippocampal ACh levels: up to 2.5 fold
[2]; DPZ 0.25 mg/kg i.p., sh-Cx30 group
  NOL task: effect on scopolamine-induced memory deficit: significantly reduced the scopolamine effect
[2]; DPZ 0.25 mg/kg i.p., sh-Cx43 group
  NOL task: effect on scopolamine-induced memory deficit: significantly reduced the scopolamine effect
[2]; DPZ 0.25 mg/kg i.p., sh-GFP injected mice
  NOL task: effect on scopolamine-induced memory deficit: unable to prevent the memory deficit caused by scopolamine
[2]; DPZ 1 mg/kg i.p., all groups (sh-GFP, sh-Cx30, sh-Cx43)
  NOL task: effect on scopolamine-induced memory deficit: able to prevent NOL memory deficits induced by scopolamine
Astrocyte Cx expression
  Astrocyte Cx expression levels: not to significantly alter astrocyte Cx expression levels
scopolamine-treated mice [3]; DPZ 0.1 mg/kg i.p. 40 min before task
  Spontaneous alternation (Y-maze): effect on scopolamine-induced deficit: exerted no effect
scopolamine-treated mice [3]; DPZ 0.25 mg/kg p.o. 40 min before task
  Spontaneous alternation (Y-maze): effect on scopolamine-induced deficit: did not reverse scopolamine-induced deficit
scopolamine-treated mice [3]; DPZ 0.5 mg/kg i.p. 40 min before task
  Spontaneous alternation (Y-maze): effect on scopolamine-induced deficit: significantly reversed the scopolamine-induced deficit
scopolamine-treated mice [4]; DPZ 0.25 mg/kg i.p.
  NOR test session: effect on scopolamine-induced loss of novel object preference: Neither MEF1 i.p., nor DPZ0.25 i.p., prevented the scopolamine effect
scopolamine-treated mice [4]; DPZ 1 mg/kg i.p.
  NOR test session: effect on scopolamine-induced loss of novel object preference: restore exploration preference of the novel object
[5]; DPZ 0.25 mg/kg p.o. daily
  Morris water maze learning (swim latency): effect on Aβ-induced memory deficit: showed no effect
[5]; DPZ 1 mg/kg p.o. daily, day 16
  Morris water maze probe test: time spent in target quadrant: restored performance up to the level noted in Sc.Aβ-injected control mice
[5]; DPZ 1 mg/kg p.o. daily, learning days 2 to 5
  Morris water maze learning (swim latency): effect on Aβ-induced memory deficit: significantly reversed the Aβ-induced memory deficits

## OC(c1cc(C(F)(F)F)nc2c(C(F)(F)F)cccc12)C1CCCCN1 (stereo not shown) [MEF, Mefloquine]
[1]; MEF 1 mg/kg i.p. alone
  Hippocampal ACh outflow: did not significantly modify ACh outflow
5-HT2C
  Ki: > 1000 nM
[6]
  Ki: > 1000 nM
Mouse hippocampus AChE; MEF 0.5–4 μM added to DPZ, brain extracts
  Effect of MEF on the potency of DPZ to inhibit AChE activity: did not modify the potency of DPZ to inhibit AChE activity; also recorded: failed to affect DPZ-induced inhibition of AChE activity
Mouse hippocampus AChE; even at 10 times the concentration reached in the brain
  Effect of MEF on AChE activity: devoid of any effect on AChE activity
[7]; MEF 1 mg/kg p.o. daily from day 1, Aβ25–35 i.c.v.
  NOR test phase: effect on Aβ-induced impairment (preference index): did not reverse the Aβ-induced impairment
5-HT3 receptors
  Ki: > 1000 nM
5-HT1A
  Ki: > 1000 nM
[8]
  Crossing of the blood–brain barrier: able to cross the blood–brain barrier
sigma-1 receptor
  Interference with sigma-1 receptor: does not interfere with sigma-1 receptor
scopolamine-treated mice [4]; MEF 1 mg/kg i.p.
  NOR test session: effect on scopolamine-induced loss of novel object preference: Neither MEF1 i.p., nor DPZ0.25 i.p., prevented the scopolamine effect
In vivo
  concentration at 24 h: ~500 nM
[5]; MEF 1 mg/kg p.o. daily
  Morris water maze learning (swim latency): effect on Aβ-induced memory deficit: showed no effect
[9]
  Cx-mediated astroglial cellular coupling: efficiently reduces Cx-mediated astroglial cellular coupling

## CN1[C@@H]2C[C@@H](OC(=O)[C@H](CO)c3ccccc3)C[C@H]1[C@@H]1O[C@@H]12 [scopolamine, Scopolamine]
[2]; scopolamine 0.5 mg/kg s.c., all LV-injected mice
  NOL task: preference index for the displaced object: ~50%
scopolamine-treated mice [3]; scopolamine 0.5 mg/kg s.c. 20 min before task
  Spontaneous alternation (Y-maze): effect of scopolamine vs vehicle-treated mice: significantly impaired spontaneous alternation
scopolamine-treated mice [4]
  NOR test session: effect of scopolamine on exploration of the novel object: abolished the increase in exploration time of the novel object

## Aβ: Aβ25–35 peptide injected i.c.v. to induce Alzheimer’s disease–like memory deficits (GSNKGAIIGLM; Amyloid-beta protein 42; UniProt P05067 696-706, looked up, fragment)
[7]; 9 nmol Aβ25–35 i.c.v.
  NOR test phase: effect of Aβ administration on exploration of the novel object: abolished the increase in exploration time of the novel object
[5]; 9 nmol Aβ25–35 i.c.v., learning days 3–5
  Morris water maze learning: effect of Aβ i.c.v. injection vs Sc.Aβ: induced a significant memory deficit
